Reference: patent publication US9493438B2, “4,4-difluoro-piperidine-compounds” (ROTTAPHARM BIOTECH S.R.L., priority 2012, dated 2016)

target: T1, human OX1 receptors (Homo sapiens, UniProt O43613); assay: antagonistic activity against human OX1 receptor, [Ca2+]i fluorimetry in transfected CHO cells; format: cell-based; details: CHO cells transfected with human recombinant OX1; activated with orexin-A 3 nM; pKb = co-logarithm of apparent dissociation constant (modified Cheng Prusoff)
T1 construct: expressed in transfected cells; host or cells: CHO cells
T1 sequence (O43613 1-425): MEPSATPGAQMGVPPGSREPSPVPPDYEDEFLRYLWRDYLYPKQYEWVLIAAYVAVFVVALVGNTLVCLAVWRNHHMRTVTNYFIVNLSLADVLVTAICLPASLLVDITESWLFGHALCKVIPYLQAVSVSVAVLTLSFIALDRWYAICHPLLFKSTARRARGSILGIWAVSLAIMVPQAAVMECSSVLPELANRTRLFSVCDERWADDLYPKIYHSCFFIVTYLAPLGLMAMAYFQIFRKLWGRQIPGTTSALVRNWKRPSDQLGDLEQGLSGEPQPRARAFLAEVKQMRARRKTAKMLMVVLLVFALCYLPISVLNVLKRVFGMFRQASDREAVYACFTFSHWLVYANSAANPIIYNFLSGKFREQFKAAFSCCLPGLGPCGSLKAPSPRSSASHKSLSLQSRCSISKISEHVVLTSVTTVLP
Method: Thus the plate was loaded with the calcium dye (Fluo-4NW/probenecid in HBSS, Hepes 20 mM, pH 7.4; Invitrogen) at 37° C. for 60 min. Afterward the temperature was equilibrated at 22° C. for 15 min and the [Ca2+]i measured directly on the plate by using a fluorescent plate reader (CeliLux Perkin Elmer).
Invention compounds were dissolved in DMSO, diluted in HBSS (DMSO, 0.3% final) and added to the wells. After 5 min CHO cells were activated with orexin-A, 3 nM while HEK-293 cells were activated with orexin-B, 10 nM. […] The antagonistic activity has been expressed as pKb (co-logarithm of the apparent dissociation constant calculated by using the modified Cheng Prusoff equation). The results are expressed as percent of control specific […] response ((measured specific response/control specific agonist response)×100) obtained in the presence of the test compounds.
The IC50 values (concentration causing a half-maximal inhibition of the control specific agonist response) were determinated by non-linear regression analysis of the concentration curves generated with mean replicate values using hill equation curve fitting. The IC50 values are obtained by the arithmetical mean of at least two experiments.

Compound | Kb [nM] | PKb OX1
O=C(c1ccccc1OC1CCCC1)N1CCC(F)(F)CC1CNc1ccc(Cl)cn1 (racemic) [Compound 13, (RS)(2-(((5-chloropyridin-2-yl)amino)methyl)-4,4-difluoropiperidin-1-yl)(2-(cyclopentyloxy)phenyl)methanone] | 100 | –
Cc1nc(C(=O)N2CCC(F)(F)CC2CNc2ccc(Cl)cn2)c(-c2ccccc2)s1 (single isomer, unassigned; isomer a) [Compound 2, (2-(((5-chloropyridin-2-yl)amino)methyl)-4,4-difluoropiperidin-1-yl)(2-methyl-5-phenylthiazol-4-yl)methanone (isomer A)] | 2 | –
O=C(c1nccc2ccccc12)N1CCC(F)(F)CC1CNc1ccc(Cl)cn1 (racemic) [Compound 22, (RS)(2-(((5-chloropyridin-2-yl)amino)methyl)-4,4-difluoropiperidin-1-yl)(isoquinolin-1-yl)methanone] | 0.631 | –
O=C(c1nccc2ccccc12)N1CCC(F)(F)CC1CNc1ccc(Cl)cn1 (single isomer, unassigned; isomer a) [Compound 23, (2-(((5-chloropyridin-2-yl)amino)methyl)-4,4-difluoropiperidin-1-yl)(isoquinolin-1-yl)methanone (isomer A)] | 79.4 | –
Cc1ccc(-n2nccn2)c(C(=O)N2CCC(F)(F)CC2CNc2ccc(Cl)cn2)n1 (single isomer, unassigned; isomer a) [Compound 8, (2-(((5-chloropyridin-2-yl)amino)methyl)-4,4-difluoropiperidin-1-yl)(6-methyl-3-(2H-1,2,3-triazol-2-yl)pyridin-2-yl)methanone (isomer A)] | 1.58 | –
Cc1cnc(-c2ncccn2)c(C(=O)N2CCC(F)(F)CC2CNc2ccc(Cl)cn2)c1 (racemic) [Compound 15, (RS)(2-(((5-chloropyridin-2-yl)amino)methyl)-4,4-difluoropiperidin-1-yl)(5-methyl-2-(pyrimidin-2-yl)pyridin-3-yl)methanone] | 126 | –
O=C(c1cc(Cl)ccc1-c1ncccn1)N1CCC(F)(F)CC1CNc1ccc(Cl)cn1 (racemic) [Compound 19, (RS)(5-chloro-2-(pyrimidin-2-yl)phenyl)(2-(((5-chloropyridin-2-yl)amino)methyl)-4,4-difluoropiperidin-1-yl)methanone] | 5.01 | –
CCOc1ccccc1C(=O)N1CCC(F)(F)CC1CNc1ccc(Cl)cn1 (racemic) [Compound 10, (RS)(2-(((5-chloropyridin-2-yl)amino)methyl)-4,4-difluoropiperidin-1-yl)(2-ethoxyphenyl)methanone] | 7.94 | –

Further lines, results first:

Kb [nM] | PKb OX1 | Compound
15.8 | – | Cc1ccc(-c2ncccn2)c(C(=O)N2CCC(F)(F)CC2CNc2ccc(C#N)cn2)n1 (racemic) [Compound 29]
2 | – | O=C(c1nccc2ccccc12)N1CCC(F)(F)CC1CNc1ncc(C(F)(F)F)cc1F (racemic) [Compound 33, (RS)(4,4-difluoro-2-(((3-fluoro-5-(trifluoromethyl)pyridin-2-yl)amino)methyl)piperidin-1-yl)(isoquinolin-1-yl)methanone]
200 | – | Cc1ccc(-c2ccccc2)c(C(=O)N2CCC(F)(F)CC2CNc2ccc(C(F)(F)F)cn2)n1 (single isomer, unassigned; isomer a) [Compound 37, (4,4-difluoro-2-(((5-(trifluoromethyl)pyridin-2-yl)amino)methyl)piperidin-1-yl)(6-methyl-3-phenylpyridin-2-yl)methanone (isomer A)]
5.01 | – | Cc1ccc(-c2cccnc2)c(C(=O)N2CCC(F)(F)CC2CNc2ccc(C(F)(F)F)cn2)n1 (racemic) [Compound 50]
31.6 | – | O=C(c1ccnc2ccccc12)N1CCC(F)(F)CC1CNc1ccc(C(F)(F)F)cn1 (racemic) [Compound 35]
– | 8.2 | (RS)(4,4-difluoro-2-(((5-(trifluoromethyl)pyridin-2-yl)amino)methyl)piperidin-1-yl)(6-methyl-3-(pyrimidin-2-yl)pyridin-2-yl)methanone [Compound 42]
